According to PubChem BioAssay (NCI):
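Five concentrations, 48 hours, 96-well plates. The concentration for 50% growth inhibition is given as GI50. The concentration for full growth arrest is given as TGI.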

Key:
Test in all cases: growth of human tumour cells (NCI), 48 h
[1] = tested on: SK-MEL-5 melanoma
[2] = tested on: SW-620 colon
[3] = tested on: A549 NSCLC
[4] = tested on: U251 CNS
[5] = tested on: NCI-H522 lung
[6] = tested on: SF-539 CNS
[7] = tested on: OVCAR-3 ovarian
[8] = tested on: HCC-2998 colon
[9] = tested on: UO-31 renal
[10] = tested on: HS 578T breast
[11] = tested on: UACC-62 melanoma
[12] = tested on: MOLT-4 leukemia
[13] = tested on: 786-0 renal
[14] = tested on: PC-3 prostate
[15] = tested on: TK-10 renal
[16] = tested on: HOP-92 NSCLC
[17] = tested on: SN12C renal
[18] = tested on: LOX IMVI melanoma
[19] = tested on: HCT-116 colon
[20] = tested on: RXF 393 renal
[21] = tested on: SNB-75 CNS
[22] = tested on: MALME-3M melanoma
[23] = tested on: HT29 colon
[24] = tested on: T-47D breast
[25] = tested on: NCI-H23 lung
[26] = tested on: KM12 colon
[27] = tested on: MCF7 breast
[28] = tested on: M14 melanoma
[29] = tested on: OVCAR-5 ovarian
[30] = tested on: HCT-15 colon
[31] = tested on: SF-295 CNS
[32] = tested on: OVCAR-4 ovarian
[33] = tested on: A498 renal
[34] = tested on: SK-MEL-2 melanoma
[35] = tested on: SK-MEL-28 melanoma
[36] = tested on: MDA-MB-231 breast
[37] = tested on: MDA-MB-435
[38] = tested on: HL-60(TB) leukemia
[39] = tested on: IGROV1 ovarian
[40] = tested on: RPMI-8226 leukemia
[41] = tested on: K-562 leukemia
[42] = tested on: EKVX NSCLC
[43] = tested on: NCI-H226 lung
[44] = tested on: SNB-19 CNS
[45] = tested on: CCRF-CEM leukemia
[46] = tested on: DU-145 prostate
[47] = tested on: NCI/ADR-RES ovarian
[48] = tested on: OVCAR-8 ovarian
[49] = tested on: CAKI-1 renal
[50] = tested on: BT-549 breast
[51] = tested on: ACHN renal
[52] = tested on: NCI-H460 lung
[53] = tested on: SF-268 CNS
[54] = tested on: COLO 205 colon
[55] = tested on: SK-OV-3 ovarian
[56] = tested on: HOP-62 NSCLC

COc1ccc(/C=C/c2nnc(/C=C/c3ccc(OC)c(OC)c3)o2)cc1OC
GI50 [1]: 2.17 µM | TGI [1]: 10.1 µM | GI50 [2]: 3.35 µM | TGI [2]: > 100 µM | GI50 [3]: 4.84 µM | TGI [3]: > 100 µM | GI50 [4]: 3.81 µM | TGI [4]: 18.6 µM | GI50 [5]: 1.9 µM | TGI [5]: 6.8 µM | GI50 [6]: 2.66 µM | TGI [6]: 9.4 µM | GI50 [7]: 5.01 µM | TGI [7]: 80.8 µM | GI50 [8]: 19.4 µM | TGI [8]: > 100 µM | GI50 [9]: 4.78 µM | TGI [9]: > 100 µM | GI50 [10]: 3.71 µM | TGI [10]: 47.5 µM | GI50 [11]: 2.39 µM | TGI [11]: 9.91 µM | GI50 [12]: 3.24 µM | TGI [12]: > 100 µM | GI50 [13]: 5.59 µM | TGI [13]: > 100 µM | GI50 [14]: 4.07 µM | TGI [14]: > 100 µM | GI50 [15]: 3.77 µM | TGI [15]: 27.8 µM | GI50 [16]: 2.52 µM | TGI [16]: 23.3 µM | GI50 [17]: 5.5 µM | TGI [17]: > 100 µM | GI50 [18]: 3.11 µM | TGI [18]: 29 µM | GI50 [19]: 2.57 µM | TGI [19]: 17.7 µM | GI50 [20]: 7.9 µM | TGI [20]: 78.1 µM | GI50 [21]: 4.22 µM | TGI [21]: 45.5 µM | GI50 [22]: 6.16 µM | TGI [22]: > 100 µM | GI50 [23]: 2.61 µM | TGI [23]: 10.8 µM | GI50 [24]: 3.48 µM | TGI [24]: 81.2 µM | GI50 [25]: 4.4 µM | TGI [25]: > 100 µM | GI50 [26]: 6.86 µM | TGI [26]: > 100 µM | GI50 [27]: 3.44 µM | TGI [27]: > 100 µM | GI50 [28]: 3.1 µM | TGI [28]: 26 µM | GI50 [29]: 4.9 µM | TGI [29]: 53.8 µM | GI50 [30]: 2.78 µM | TGI [30]: > 100 µM | GI50 [31]: 2.95 µM | TGI [31]: 17.7 µM | GI50 [32]: 9.08 µM | TGI [32]: > 100 µM | GI50 [33]: 0.24 µM | TGI [33]: 9.1 µM | GI50 [34]: 2.9 µM | TGI [34]: 18.6 µM | GI50 [35]: 4.96 µM | TGI [35]: > 100 µM | GI50 [36]: 3.62 µM | TGI [36]: 43.4 µM | GI50 [37]: 0.929 µM | TGI [37]: 3.93 µM | GI50 [38]: 2.36 µM | TGI [38]: 8.6 µM | GI50 [39]: 4.23 µM | TGI [39]: > 100 µM | GI50 [40]: 2.65 µM | TGI [40]: > 100 µM | GI50 [41]: 1.83 µM | TGI [41]: > 100 µM | GI50 [42]: 6.22 µM | TGI [42]: > 100 µM | GI50 [43]: 14.9 µM | TGI [43]: > 100 µM | GI50 [44]: 4.11 µM | TGI [44]: 91.7 µM | GI50 [45]: 3.97 µM | TGI [45]: > 100 µM | GI50 [46]: 15 µM | TGI [46]: > 100 µM | GI50 [47]: 3.52 µM | TGI [47]: > 100 µM | GI50 [48]: 8.78 µM | TGI [48]: > 100 µM | GI50 [49]: 11.4 µM | TGI [49]: > 100 µM | GI50 [50]: 2.9 µM | TGI [50]: 35.7 µM | GI50 [51]: 13.9 µM | TGI [51]: > 100 µM | GI50 [52]: 4.23 µM | TGI [52]: > 100 µM | GI50 [53]: 7.77 µM | TGI [53]: > 100 µM | GI50 [54]: 8.35 µM | TGI [54]: 98.2 µM | GI50 [55]: 8.62 µM | TGI [55]: 93.3 µM | GI50 [56]: 5.21 µM | TGI [56]: > 100 µM
